Here are results for 16 molecules from US10947252B2, “Inhibitors of KEAP1-Nrf2 protein-protein interaction” (Janssen Pharmaceutica NV, priority 2018, dated 2021).

One may read the EC50 as the concentration giving half of the maximal effect. By Kd is commonly meant the free concentration of one partner at which half of the binding sites on the other are occupied at equilibrium, for simple one-to-one binding.

Test [1] deals with Glo-Response ARE-luc2P HEK293 cell line. In words: ARE luciferase reporter cell-based assay.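 Also: luciferase signal tracks Nrf2 activation of the ARE once compounds disrupt KEAP1-Nrf2 binding, read with One-Glo reagent, DMSO serving as low control.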 The conditions noted are these: average of results obtained. A general note: Reporter assays use an easily measured gene product as a stand-in for the process of interest.
The target in test [2] is Kelch domain of human KEAP1 (321-624 aa) (Homo sapiens (Human), UniProt Q14145). In words: KEAP1 KELCH ThermoFluor binding assay.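 Also: Ligand-induced melting temperature shift of E. coli-expressed KEAP1 Kelch protein, Kd estimated from concentration-response curves of ΔTm.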 The conditions noted are these: KEAP Kelch […], 1,8-ANS, pH 7.0, average of results obtained, read-out: Tf Kd.
Chain of Kelch domain of human KEAP1 (321-624 aa) (Q14145 321-624): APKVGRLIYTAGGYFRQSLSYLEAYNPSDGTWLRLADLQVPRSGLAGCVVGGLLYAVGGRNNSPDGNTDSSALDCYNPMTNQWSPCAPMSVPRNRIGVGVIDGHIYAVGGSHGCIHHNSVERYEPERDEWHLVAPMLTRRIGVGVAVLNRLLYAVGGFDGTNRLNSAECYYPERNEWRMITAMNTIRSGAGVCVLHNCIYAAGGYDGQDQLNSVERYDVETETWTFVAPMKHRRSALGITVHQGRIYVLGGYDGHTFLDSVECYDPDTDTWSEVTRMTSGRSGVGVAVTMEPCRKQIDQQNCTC

Molecule `Cc1cc2cc([C@@H](CC(=O)O)c3ccc(C)c(CN4C[C@H]5CCCCN5c5ncccc5S4(=O)=O)c3)n(C)c2nn1` (single isomer, unassigned) [Example 444, (*S)-3-(3,7-Dimethyl-7H-pyrrolo[2,3-c]pyridazin-6-yl)-3-(3-(((*R)-5,5-dioxido-7,7a,8,9,10,11-hexahydro-6H-dipyrido[2,1-d:2′,3′-f][1,2,5]thiadiazepin-6-yl)methyl)-4-methylphenyl)propanoic Acid] yielded a 50% effective concentration (EC50) in test [1] (Homo sapiens, HEK293, 24 h) of over 20000 nM. Besides, in test [2], the Kd was found to be 21.3 nM.
In test [1] (24 hours), “(*S)-3-(3-((7′-(3-((2-(2-aminoethoxy)ethyl)amino)-3-oxopropyl)-1′,1′-dioxido-2,3,5,6-tetrahydrospiro[pyran-4,4′-pyrido[2,3-b][1,4,5]oxathiazepin]-2′(3′H)-yl)methyl)-4-methylphenyl)-2,2-dimethyl-3-(8-methyl-3-(trifluoromethyl)-[1,2,4]triazolo[4,3-a]pyridin-7-yl)propanoic Acid [Example 345]” had a concentration giving a half-maximal response (EC50) of over 20 nM. The Kd in test [2] was over 10000 nM.
Take `Cc1ccc([C@H](CC(=O)O)c2ccn3c(C(F)F)nnc3c2C)cc1CN1C[C@H]2CCCN2c2ncc(C#N)cc2S1(=O)=O` (single isomer, unassigned) [Example 540, (*S)-3-(3-(((*R)-3-Cyano-5,5-dioxido-7a,8,9,10-tetrahydropyrido[2,3-f]pyrrolo[2,1-d][1,2,5]thiadiazepin-6(7H)-yl)methyl)-4-methylphenyl)-3-(3-(difluoromethyl)-8-methyl-[1,2,4]triazolo[4,3-a]pyridin-7-yl)propanoic Acid]: it took 26.7 nM to reach a half-maximal effect in test [1] (Homo sapiens, HEK293, 24 h) (EC50). Besides, the Kd in test [2] was under 1 nM.
For `Cc1ccc([C@@H](c2ccn3c(C(F)(F)F)nnc3c2C)C(C)(C)C(=O)O)nc1CN1CC2(CCOCC2)Oc2nc(OCCN3CCOCC3)ccc2S1(=O)=O` (single isomer, unassigned) [Example 325, (*S)-2,2-Dimethyl-3-(8-methyl-3-(trifluoromethyl)-[1,2,4]triazolo[4,3-a]pyridin-7-yl)-3-(5-methyl-6-((7′-(2-morpholinoethoxy)-1′,1′-dioxido-2,3,5,6-tetrahydrospiro[pyran-4,4′-pyrido[2,3-b][1,4,5]oxathiazepin]-2′(3′H)-yl)methyl)pyridin-2-yl)propanoic Acid] the same measures were 17.2 nM and under 1 nM.
Molecule `CCn1nnc2c(C)c([C@H](CC(=O)O)c3ccc(C)c(CN4C[C@H]5CCCCN5c5ncccc5S4(=O)=O)n3)ccc21` (single isomer, unassigned) [Example 305, (*S)-3-(6-(((*R)-5,5-Dioxido-7,7a,8,9,10,11-hexahydro-6H-dipyrido[2,1-d:2′,3′-][1,2,5]thiadiazepin-6-yl)methyl)-5-methylpyridin-2-yl)-3-(1-ethyl-4-methyl-1H-benzo[d][1,2,3]triazol-5-yl)propanoic Acid] returned an EC50 in test [1] (Homo sapiens, HEK293, 24 h) of 1.7 nM. Moreover, in test [2], the dissociation constant Kd was under 1 nM.
With `Cc1cnc2c(c1)S(=O)(=O)N(Cc1cc([C@@H](c3ccn4c(C(F)(F)F)nnc4c3C)C(C)(C)C(=O)O)ccc1C)C[C@@]1(CCOC1)O2` (single isomer, unassigned) [Example 384, (*S)-2,2-Dimethyl-3-(4-methyl-3-(((*R)-8′-methyl-1′,1′-dioxido-4,5-dihydro-2H-spiro[furan-3,4′-pyrido[2,3-b][1,4,5]oxathiazepin]-2′(3′H)-yl)methyl)phenyl)-3-(8-methyl-3-(trifluoromethyl)-[1,2,4]triazolo[4,3-a]pyridin-7-yl)propanoic Acid], the concentration for a half-maximal effect (EC50) in test [1] (Homo sapiens, HEK293, 24 h) was 150 nM. Moreover, the Kd in test [2] was determined as 246 nM.
The molecule `COC1CCN(CCOc2nc3c(cc2C)S(=O)(=O)N(Cc2cc([C@@H](c4ccn5c(C(F)(F)F)nnc5c4C)C(C)(C)C(=O)O)ccc2C)CC2(CC2)O3)CC1` (single isomer, unassigned) [Example 378, (*S)-3-(3-((7′-(2-(4-Methoxypiperidin-1-yl)ethoxy)-8′-methyl-1′,1′-dioxidospiro[cyclopropane-1,4′-pyrido[2,3-b][1,4,5]oxathiazepin]-2′(3′H)-yl)methyl)-4-methylphenyl)-2,2-dimethyl-3-(8-methyl-3-(trifluoromethyl)-[1,2,4]triazolo[4,3-a]pyridine-7-yl)propanoic Acid] had a concentration for a half-maximal effect (EC50) in test [1] (Homo sapiens, HEK293, 24 h) of 4 nM. In addition, the dissociation constant Kd in test [2] is under 1 nM.
In turn, `Cc1ccc([C@H](CC(=O)O)c2ccn3c(C(F)(F)F)nnc3c2C)nc1CN1C[C@@H]2CCCCN2c2ncc(F)cc2S1(=O)=O` (single isomer, unassigned) [Example 498, (*R)-3-(6-(((*S)-3-Fluoro-5,5-dioxido-7,7a,8,9,10,11-hexahydro-6H-dipyrido[2,1-d:2′,3′-f][1,2,5]thiadiazepin-6-yl)methyl)-5-methylpyridin-2-yl)-3-(8-methyl-3-(trifluoromethyl)-[1,2,4]triazolo[4,3-a]pyridin-7-yl)propanoic Acid] registered an EC50 in test [1] (Homo sapiens, HEK293, 24 h) of 14.7 nM. In test [2], the Kd is under 1 nM.
Take `Cc1c(C(CC(=O)O)c2ccc(Cl)c(CN3CC4CCCCN4c4ncc(F)cc4S3(=O)=O)c2)ccn2c(C(F)(F)F)nnc12` (centres unmarked) [Example 92, 3-(4-Chloro-3-(((*S)-3-fluoro-5,5-dioxido-7,7a,8,9,10,11-hexahydro-6H-dipyrido[2,1-d:2′,3′-f][1,2,5]thiadiazepin-6-yl)methyl)phenyl)-3-(8-methyl-3-(trifluoromethyl)-[1,2,4]triazolo[4,3-a]pyridine-7-yl)propanoic Acid]: in test [1] (Homo sapiens, HEK293, 24 h), the midpoint of the response, the EC50, lay at 28.6 nM. For the same molecule, in test [2], the Kd is under 1 nM.
In test [1] (Homo sapiens, HEK293, 24 h), `CC[C@@H]1CN(Cc2cc([C@@H](CC(=O)O)c3ccn4c(C(F)(F)F)nnc4c3C)ccc2C)S(=O)(=O)c2cccnc2O1` (single isomer, unassigned) [Example 190, (*R)-3-(3-(((R)-4-Ethyl-1,1-dioxido-3,4-dihydro-2H-pyrido[2,3-b][1,4,5]oxathiazepin-2-yl)methyl)-4-methylphenyl)-3-(8-methyl-3-(trifluoromethyl)-[1,2,4]triazolo[4,3-a]pyridin-7-yl)propanoic Acid] returned an EC50 of 57 nM. Moreover, the dissociation constant Kd in test [2] is under 1 nM.
Molecule `Cc1ncc([C@@H](c2ccn3c(C(F)(F)F)nnc3c2C)C(C)(C)C(=O)O)cc1CN1C[C@@H]2CCCCN2c2ncc(C#N)cc2S1(=O)=O` (single isomer, unassigned) [Example 655, (*R)-3-(5-(((*S)-3-Cyano-5,5-dioxido-7,7a,8,9,10,11-hexahydro-6H-dipyrido[2,1-d:2′,3′-f][1,2,5]thiadiazepin-6-yl)methyl)-6-methylpyridin-3-yl)-2,2-dimethyl-3-(8-methyl-3-(trifluoromethyl)-[1,2,4]triazolo[4,3-a]pyridin-7-yl)propanoic Acid] returned a half-maximal effective concentration (EC50) in test [1] (Homo sapiens, HEK293, 24 h) of 138 nM. Besides, the Kd in test [2] was under 1 nM.
`Cc1ccc([C@H](CC(=O)O)c2ccn3c(C4CC4)nnc3c2C)cc1CN1C[C@H]2CCCN2c2ncccc2S1(=O)=O` (single isomer, unassigned) [Example 168, (*S)-3-(3-Cyclopropyl-8-methyl-[1,2,4]triazolo[4,3-a]pyridin-7-yl)-3-(3-(((R)-5,5-dioxido-7a,8,9,10-tetrahydropyrido[2,3-f]pyrrolo[2,1-d][1,2,5]thiadiazepin-6(7H)-yl)methyl)-4-methylphenyl)propanoic Acid] displayed an EC50 in test [1] (Homo sapiens, HEK293, 24 h) of 480 nM. In addition, the Kd in test [2] is under 1 nM.
`Cc1ccc([C@H](c2ccn3c(C(F)(F)F)nnc3c2C)C(C)(C)C(=O)O)cc1CN1CC2(CCOCC2)Oc2nc(N[C@@H](C)CCO)c(C)cc2S1(=O)=O` (single isomer, unassigned) [Example 123, (*R)-3-(3-((7′-(((S)-4-Hydroxybutan-2-yl)amino)-8′-methyl-1′,1′-dioxido-2,3,5,6-tetrahydrospiro[pyran-4,4′-pyrido[2,3-b][1,4,5]oxathiazepin]-2′(3′H)-yl)methyl)-4-methylphenyl)-2,2-dimethyl-3-(8-methyl-3-(trifluoromethyl)-[1,2,4[triazolo[4,3-a]pyridine-7-yl)propanoic Acid] returned a concentration giving a half-maximal response (EC50) in test [1] (Homo sapiens, HEK293, 24 h) of 28.9 nM. Moreover, the dissociation constant (Kd) in test [2] is under 1 nM.
For `Cc1ccc([C@H](CC(=O)O)c2ccn3c(C(F)(F)F)nnc3c2C)cc1CN1C[C@H]2CCCN2c2ncc(C#N)cc2S1(=O)=O` (single isomer, unassigned) [Example 207, (*S)-3-(3-(((R)-3-Cyano-5,5-dioxido-7a,8,9,10-tetrahydropyrido[2,3-f]pyrrolo[2,1-d][1,2,5]thiadiazepin-6(7H)-yl)methyl)-4-methylphenyl)-3-(8-methyl-3-(trifluoromethyl)-[1,2,4]triazolo[4,3-a]pyridin-7-yl)propanoic Acid], the EC50 in test [1] (Homo sapiens, HEK293, 24 h) was 11 nM. In test [2], the equilibrium dissociation constant (Kd) was under 1 nM.
Regarding `Cc1ccc([C@@H](c2ccn3c(C(F)(F)F)nnc3c2C)C(C)(C)C(=O)O)cc1CN1CC2(CC2)Oc2nc(OCCN3CCC3)c(C)cc2S1(=O)=O` (single isomer, unassigned) [Example 604, (*S)-3-(3-((7′-(2-(Azetidin-1-yl)ethoxy)-8′-methyl-1′,1′-dioxidospiro[cyclopropane-1,4′-pyrido[2,3-b][1,4,5]oxathiazepin]-2′(3′H)-yl)methyl)-4-methylphenyl)-2,2-dimethyl-3-(8-methyl-3-(trifluoromethyl)-[1,2,4]triazolo[4,3-a]pyridine-7-yl)propanoic Acid], the concentration giving a half-maximal response (EC50) in test [1] (Homo sapiens, HEK293, 24 h) came out at 8.82 nM. For the same molecule, the Kd in test [2] was under 1 nM.
In test [1] (Homo sapiens, HEK293, 24 h), `Cc1ccc([C@H](CC(=O)O)c2ccc3c(nnn3C3CC3)c2C)cc1CN1C[C@@H]2COCCN2c2ncccc2S1(=O)=O` (single isomer, unassigned) [Example 24, (*S)-3-(1-Cyclopropyl-4-methyl-1H-benzo[d][1,2,3]triazol-5-yl)-3-(3-(((*R)-5,5-dioxido-7a,8,10,11-tetrahydro-[1,4]oxazino[3,4-d]pyrido[2,3-f][1,2,5]thiadiazepin-6(7H)-yl)methyl)-4-methylphenyl)propanoic Acid] showed an EC50 of 4.1 nM. Further, the Kd in test [2] was determined as 0.264 nM.
